Earlier results as cited in patent publication US20160021884A1, “STABLE SOLUTIONS OF 1,2-BENZISOTHIAZOLIN-3-ONE” (TITAN CHEMICALS LIMITED, priority 2014, published 2016).

Details: 5° C., 4 weeks

## O=c1[n-]sc2ccccc12.[Li+] [lithium salt of BIT]
  Stability of purely aqueous solution: stable at 5 °C for 4 weeks
